Reference: ChEMBL document CHEMBL4229419, “Phosphorus-containing isothiocyanate-derived mercapturic acids as a useful alternative for parental isothiocyanates in experimental oncology” (Bioorg Med Chem Lett, 2018)
Active and inactive are the calls of the source. No cut-off for these calls is given here.

Legend:
[1] = Antiproliferative activity against human LoVo/DX cells after 72 hrs by SRB assay; type: functional, cell-based
LoVo [2] = experiment: Antiproliferative activity against human LoVo cells after 72 hrs by SRB assay; type: functional, cell-based
LoVo [3] = experiment: Induction of apoptosis in human LoVo cells assessed as caspase-3 activation at 15 uM after 24 hrs by Ac-DEVD-ACC substrate based fluorescence assay relative to control; type: functional
LoVo [4] = experiment: Cell cycle arrest in human LoVo cells assessed as accumulation at G2/M phase at 15 uM after 24 hrs by propidium iodide staining based flow cytometry (reference value: 21%); type: functional
MES-SA = experiment: Antiproliferative activity against human MES-SA cells after 72 hrs by SRB assay; type: functional, cell-based
MES-SA/Dx5 = experiment: Antiproliferative activity against human MES-SA/Dx5 cells after 72 hrs by SRB assay; type: functional, cell-based; settings: MES-SA/Dx5, 72 h
[5] = Resistance index, ratio of IC50 for antiproliferative activity against human HL60/MX2 cells to IC50 for antiproliferative activity against human HL60 cells; type: functional
BALB/3T3 = experiment: Antiproliferative activity against mouse BALB/3T3 cells after 72 hrs by MTT assay; type: cell-based; settings: BALB/3T3, 72 h
HL60/MX2 = experiment: Antiproliferative activity against human HL60/MX2 cells after 72 hrs by SRB assay; type: functional, cell-based; settings: HL60/MX2, 72 h
HL-60 = experiment: Antiproliferative activity against human HL60 cells after 72 hrs by SRB assay; type: functional, cell-based; settings: HL-60, 72 h
4T1 = experiment: Antiproliferative activity against mouse 4T1 cells after 72 hrs by MTT assay; type: functional, cell-based; settings: 4T1, 72 h

Compound | IC50 (LoVo [2]) | IC50 [1] | further results
CC(=O)N[C@@H](CSC(=S)NCCCC[S+](C)[O-])C(=O)O (some centres not stated) | 20.5 µM | 14 µM | Activity (LoVo [3]): Active
CC(=O)N[C@@H](CSC(=S)NCCCP(=O)(Oc1ccccc1)Oc1ccccc1)C(=O)O | 2 µM | 7.6 µM | –
CC(=O)N[C@@H](CSC(=S)NCc1ccccc1)C(=O)O | 11.5 µM | 15.4 µM | fold change (FC) (LoVo [3]): >10; Activity (LoVo [4]): 49%
CC(=O)N[C@@H](CSC(=S)NCCP(=O)(OC(C)C)OC(C)C)C(=O)O | 5 µM | 8.1 µM | –
CC(=O)N[C@@H](CSC(=S)NCCCCP(=O)(Oc1ccccc1)Oc1ccccc1)C(=O)O | 2.2 µM | 7.9 µM | –
COc1cccc2c1C(=O)c1c(O)c3c(c(O)c1C2=O)C[C@@](O)(C(=O)CO)C[C@@H]3O[C@H]1C[C@H](N)[C@H](O)[C@H](C)O1 [DOXORUBICIN] | – | – | IC50 (MES-SA): 0.16 µM; IC50 (MES-SA/Dx5): 16.2 µM
CCOC(OCC)P(=O)(CCCCCCNC(=S)SC[C@H](NC(C)=O)C(=O)O)OCC (some centres not stated) | 3.1 µM | 10.4 µM | –
CCOP(=O)(CCCCNC(=S)SC[C@H](NC(C)=O)C(=O)O)OCC | 3.3 µM | 10 µM | –
CCCCNC(=S)SC[C@H](NC(C)=O)C(=O)O | 201 µM | 224 µM | –
CC(=O)N[C@@H](CSC(=S)NCCCCP(=O)(OCC(C)C)OCC(C)C)C(=O)O | 3 µM | 9 µM | –
CC(=O)N[C@@H](CSC(=S)NCCCCCCP(=O)(OCC(C)C)OCC(C)C)C(=O)O | 11.1 µM | 10.9 µM | –
CC(=O)N[C@@H](CSC(=S)NCCCCCP(=O)(Oc1ccccc1)Oc1ccccc1)C(=O)O | 1.9 µM | 8 µM | –
CC(=O)N[C@@H](CSC(=S)NCCCP(=O)(OCC(C)C)OCC(C)C)C(=O)O | 19.3 µM | 17.9 µM | –
O=C1c2c(O)ccc(O)c2C(=O)c2c(NCCNCCO)ccc(NCCNCCO)c21 [MITOXANTRONE] | – | – | Ratio IC50 [5]: 37
CCOC(OCC)P(=O)(CCCCCCN=C=S)OCC (configuration not stated) | 5.1 µM | 10.6 µM | –
COP(=O)(CCCCN=C=S)c1ccccc1 (configuration not stated) | 3.1 µM | 2.3 µM | –
CC(=O)N[C@@H](CSC(=S)NCCP(=O)(Oc1ccccc1)Oc1ccccc1)C(=O)O | 3.5 µM | 9 µM | –
CC(=O)N[C@@H](CSC(=S)NCCCP(=O)(OC(C)C)OC(C)C)C(=O)O | 3.1 µM | 8.5 µM | –
CC(=O)N[C@@H](CSC(=S)NCCCCCCP(=O)(Oc1ccccc1)Oc1ccccc1)C(=O)O | 2.5 µM | 11.3 µM | –
CCOC(OCC)P(=O)(CCCCNC(=S)SC[C@H](NC(C)=O)C(=O)O)OCC (some centres not stated) | 6.4 µM | 11.3 µM | –
CC(=O)N[C@@H](CSC(=S)NCCCP(=O)(c1ccccc1)c1ccccc1)C(=O)O | 4.6 µM | 5.6 µM | –
CC(=O)N[C@@H](CSC(=S)NCCCCP(=O)(c1ccccc1)c1ccccc1)C(=O)O | 4.4 µM | 8.1 µM | –
CCOC(OCC)P(=O)(CCCCN=C=S)OCC (configuration not stated) | 7 µM | 11.2 µM | –

More lines, in order of falling IC50 (LoVo [2]), values ahead:

IC50 (LoVo [2]) | Compound | IC50 [1] | further results
3 µM | CCOC(OCC)P(=O)(CCCCCNC(=S)SC[C@H](NC(C)=O)C(=O)O)OCC (some centres not stated) | 8.4 µM | –
2.7 µM | COP(=O)(CCCCNC(=S)SC[C@H](NC(C)=O)C(=O)O)c1ccccc1 (some centres not stated) | 2.9 µM | –
2.6 µM | CC(=O)N[C@@H](CSC(=S)NCCCCP(=O)(OC(C)C)OC(C)C)C(=O)O | 8.9 µM | –
2.6 µM | CC(=O)N[C@@H](CSC(=S)NCCCCCP(=O)(OCC(C)C)OCC(C)C)C(=O)O | 8.8 µM | –
2.5 µM | COP(=O)(CCCCCNC(=S)SC[C@H](NC(C)=O)C(=O)O)c1ccccc1 (some centres not stated) | 2.6 µM | –
2.5 µM | CCOP(=O)(CCCCNC(=S)SC[C@H](NC(C)=O)C(=O)O)c1ccccc1 (some centres not stated) | 3.5 µM | –
2.5 µM | CCOP(=O)(CCCCN=C=S)c1ccccc1 (configuration not stated) | 4.1 µM | –
2.4 µM | CC(=O)N[C@@H](CSC(=S)NCCCCCP(=O)(OC(C)C)OC(C)C)C(=O)O | 3.4 µM | –
2.3 µM | CCOP(=O)(CCCCCCN=C=S)c1ccccc1 (configuration not stated) | 4 µM | –
2.2 µM | CCOP(=O)(CCCCCCNC(=S)SC[C@H](NC(C)=O)C(=O)O)OCC | 2.6 µM | –
2.2 µM | CC(=O)N[C@@H](CSC(=S)NCCP(=O)(OCC(C)C)OCC(C)C)C(=O)O | 3.9 µM | –
2.2 µM | CCOP(=O)(CCCCCNC(=S)SC[C@H](NC(C)=O)C(=O)O)OCC | 4 µM | –
2.2 µM | CCOP(=O)(CCCNC(=S)SC[C@H](NC(C)=O)C(=O)O)c1ccccc1 (some centres not stated) | 3.4 µM | –
2.2 µM | O=P(CCCCCCN=C=S)(c1ccccc1)c1ccccc1 | 3.1 µM | –
2.2 µM | CCOP(=O)(CCCNC(=S)SC[C@H](NC(C)=O)C(=O)O)OCC | 2.5 µM | –
2.2 µM | CCOP(=O)(CCNC(=S)SC[C@H](NC(C)=O)C(=O)O)OCC | 8 µM | –
2.2 µM | O=P(CCCCN=C=S)(c1ccccc1)c1ccccc1 | 2.2 µM | –
2.1 µM | CC(=O)N[C@@H](CSC(=S)NCCCCCCP(=O)(c1ccccc1)c1ccccc1)C(=O)O | 8.1 µM | –
2.1 µM | COP(=O)(CCCCCCNC(=S)SC[C@H](NC(C)=O)C(=O)O)c1ccccc1 (some centres not stated) | 2.8 µM | –
2 µM | CCOP(=O)(CCCCCNC(=S)SC[C@H](NC(C)=O)C(=O)O)c1ccccc1 (some centres not stated) | 3.3 µM | –
2 µM | CC(=O)N[C@@H](CSC(=S)NCCP(=O)(c1ccccc1)c1ccccc1)C(=O)O | 7.7 µM | –
2 µM | O=P(CCN=C=S)(c1ccccc1)c1ccccc1 | 2.2 µM | –
1.8 µM | COP(=O)(CCCCCCN=C=S)c1ccccc1 (configuration not stated) | 2.3 µM | –
1.8 µM | CC(=O)N[C@@H](CSC(=S)NCCCCCCP(=O)(OC(C)C)OC(C)C)C(=O)O | 3.4 µM | IC50 (BALB/3T3): 10.9 µM; IC50 (MES-SA): 9.9 µM; IC50 (MES-SA/Dx5): 10.3 µM; IC50 (HL60/MX2): 3 µM; fold change (FC) (LoVo [3]): 2.2; Ratio IC50 [5]: 5; IC50 (HL-60): 0.6 µM; Activity (LoVo [4]): 24%; IC50 (4T1): 2.5 µM
1.5 µM | CC(=O)N[C@@H](CSC(=S)NCCCCCP(=O)(c1ccccc1)c1ccccc1)C(=O)O | 4.3 µM | –
1.5 µM | CCOP(=O)(CCCCCCNC(=S)SC[C@H](NC(C)=O)C(=O)O)c1ccccc1 (some centres not stated) | 2.2 µM | IC50 (BALB/3T3): 7.9 µM; IC50 (MES-SA): 2.8 µM; IC50 (MES-SA/Dx5): 2.6 µM; IC50 (HL60/MX2): 0.7 µM; fold change (FC) (LoVo [3]): 2.8; IC50 (HL-60): 0.4 µM; Activity (LoVo [4]): 22%; IC50 (4T1): 1.9 µM
